The numbers were not newly measured in patent US12409155B1, “Ready to use LET formulations” (QuVa Pharma, Inc., priority 2021, dated 2025), which cites them from elsewhere.

The conditions of this series: Handbook.

For `O=C(O)CC(O)(CC(=O)O)C(=O)O` [citric acid], the pKa2 was 4.76.
